Assay results as given in PubChem BioAssay AID328 (DTP/NCI, 2004).
Values joined by “and” are separate entries in the source; they are usually repeats but may differ in a detail not shown here. Equal values may be shown once. Inconclusive results and toxic doses are left out.

System: BDF1 mice, P388 leukemia ip, median survival T/C
Assay: NCI In Vivo Anticancer Drug Screen. Data for tumor model P388 Leukemia (intraperitoneal) in B6D2F1 (BDF1) mice
Settings: endpoint: median survival time, higher = longer survival
Outline: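 Antitumour effect was judged in vivo: survival in drug-treated mice, normalised to that of vehicle-dosed controls, gives the reported T/C.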

[1] = dose: 200.0 mg/kg/injection, schedule: Q04DX003 (ip), vehicle: Klucel (hydroxypropylcellulose) (HPC)
[2] = dose: 100.0 mg/kg/injection, schedule: Q04DX003 (ip), vehicle: saline
[3] = dose: 200.0 mg/kg/injection, schedule: Q04DX003 (ip), vehicle: saline

In the case of `O=C(NCCNC(=O)c1cccnc1)c1ccncc1`, the T/C (dose: 100.0 mg/kg/injection, schedule: Q01DX001 (ip), vehicle: saline) is reported as 90 % of control, the T/C (dose: 200.0 mg/kg/injection, schedule: Q01DX001 (ip), vehicle: saline) is reported as 90 % of control and the T/C (dose: 400.0 mg/kg/injection, schedule: Q01DX001 (ip), vehicle: saline) is reported as 90 % of control.
In the case of `CC(CN1CC(=O)NC(=O)C1)N1CC(=O)NC(=O)C1` (stereo not drawn), the T/C (dose: 3.12 mg/kg/injection, schedule: Q03HX024 (ip), vehicle: steriod suspending solution) is reported as 200 % of control, the T/C (dose: 3.75 mg/kg/injection, schedule: Q01DX010 (oral), vehicle: saline with Tween-80) is reported as 109 % of control and the T/C (dose: 6.25 mg/kg/injection, schedule: Q03HX024 (ip), vehicle: steriod suspending solution) is reported as 205 % of control. For the same compound, the T/C (dose: 10.0 mg/kg/injection, schedule: Q04DX003 (ip), vehicle: Klucel (hydroxypropylcellulose) (HPC)) was 117 % of control, the T/C (dose: 12.5 mg/kg/injection, schedule: Q01DX009 (ip), vehicle: steriod suspending solution) was 100 % of control and the T/C (dose: 12.5 mg/kg/injection, schedule: Q03HX024 (ip), vehicle: steriod suspending solution) was 258 % of control. For the same compound, the T/C (dose: 15.0 mg/kg/injection, schedule: Q01DX010 (oral), vehicle: saline with Tween-80) was 154 % of control, the T/C (dose: 25.0 mg/kg/injection, schedule: Q03HX024 (ip), vehicle: steriod suspending solution) was 211 % of control and the T/C (dose: 30.0 mg/kg/injection, schedule: Q01DX010 (ip), vehicle: saline) was 186 % of control. For the same compound, the T/C (dose: 50.0 mg/kg/injection, schedule: Q01DX009 (ip), vehicle: steriod suspending solution) was 164 % of control, the T/C (dose: 50.0 mg/kg/injection, schedule: Q04DX002 (ip), vehicle: Klucel (hydroxypropylcellulose) (HPC)) was 111 % of control and the T/C (dose: 60.0 mg/kg/injection, schedule: Q01DX010 (ip), vehicle: saline) was 181 % of control. The T/C (dose: 100.0 mg/kg/injection, schedule: Q01DX001 (ip), vehicle: steriod suspending solution) was 111 % of control, the T/C (dose: 100.0 mg/kg/injection, schedule: Q01DX009 (ip), vehicle: steriod suspending solution) was 111 % of control and the T/C (dose: 100.0 mg/kg/injection, schedule: Q04DX002 (ip), vehicle: Klucel (hydroxypropylcellulose) (HPC)) was 108 % of control. For the same compound, the T/C (dose: 100.0 mg/kg/injection, schedule: Q04DX003 (ip), vehicle: steriod suspending solution) was 176 % of control, the T/C (dose: 108.0 mg/kg/injection, schedule: Q04DX003 (ip), vehicle: Klucel (hydroxypropylcellulose) (HPC)) was 231 % of control and the T/C (dose: 120.0 mg/kg/injection, schedule: Q01DX010 (ip), vehicle: saline) was 113 % of control. The T/C (dose: 144.0 mg/kg/injection, schedule: Q04DX003 (ip), vehicle: Klucel (hydroxypropylcellulose) (HPC)) was 203 % of control, the T/C (dose: 180.0 mg/kg/injection, schedule: Q04DX003 (ip), vehicle: Klucel (hydroxypropylcellulose) (HPC)) was 287 % of control and the T/C (dose: 180.0 mg/kg/injection, schedule: Q04DX003 (ip), vehicle: alkali diluted with saline) was 196 % of control. The T/C (dose: 200.0 mg/kg/injection, schedule: Q04DX002 (ip), vehicle: Klucel (hydroxypropylcellulose) (HPC)) was 161 % of control, the T/C [1] was 100 % of control and 153 % of control and 215 % of control and the T/C (dose: 200.0 mg/kg/injection, schedule: Q04DX003 (ip), vehicle: steriod suspending solution) was 194 % of control. For the same compound, the T/C (dose: 216.0 mg/kg/injection, schedule: Q04DX003 (ip), vehicle: Klucel (hydroxypropylcellulose) (HPC)) was 212 % of control, the T/C (dose: 240.0 mg/kg/injection, schedule: Q04DX003 (ip), vehicle: Klucel (hydroxypropylcellulose) (HPC)) was 245 % of control and the T/C (dose: 300.0 mg/kg/injection, schedule: Q04DX003 (ip), vehicle: alkali diluted with saline) was 252 % of control. The T/C (dose: 400.0 mg/kg/injection, schedule: Q01DX001 (ip), vehicle: steriod suspending solution) was 152 % of control, the T/C (dose: 400.0 mg/kg/injection, schedule: Q04DX002 (ip), vehicle: Klucel (hydroxypropylcellulose) (HPC)) was 193 % of control and 199 % of control and the T/C (dose: 400.0 mg/kg/injection, schedule: Q04DX003 (ip), vehicle: steriod suspending solution) was 176 % of control. For the same compound, the T/C (dose: 500.0 mg/kg/injection, schedule: Q04DX003 (ip), vehicle: Klucel (hydroxypropylcellulose) (HPC)) was 91 % of control and 96 % of control, the T/C (dose: 500.0 mg/kg/injection, schedule: Q04DX003 (ip), vehicle: alkali diluted with saline) was 93 % of control and the T/C (dose: 800.0 mg/kg/injection, schedule: Q01DX001 (ip), vehicle: steriod suspending solution) was 94 % of control. For the same compound, the T/C (dose: 800.0 mg/kg/injection, schedule: Q04DX003 (ip), vehicle: steriod suspending solution) was 111 % of control.
In the case of `Cc1nc2c(NC(=O)C(F)(F)F)nn(C)c2nc1C`, the T/C (dose: 100.0 mg/kg/injection, schedule: Q04DX003 (ip), vehicle: saline with Tween-80) is reported as 100 % of control, the T/C (dose: 200.0 mg/kg/injection, schedule: Q04DX003 (ip), vehicle: saline with Tween-80) is reported as 104 % of control and the T/C (dose: 400.0 mg/kg/injection, schedule: Q04DX003 (ip), vehicle: saline with Tween-80) is reported as 100 % of control.
With `CCn1c(O)c(C=N)c(=O)[nH]c1=O` the T/C (dose: 50.0 mg/kg/injection, schedule: Q01DX009 (ip), vehicle: saline) was 100 % of control, the T/C (dose: 50.0 mg/kg/injection, schedule: Q04DX003 (ip), vehicle: saline) was 103 % of control and the T/C (dose: 100.0 mg/kg/injection, schedule: Q01DX009 (ip), vehicle: saline) was 109 % of control. The T/C [2] was 100 % of control, the T/C (dose: 200.0 mg/kg/injection, schedule: Q01DX009 (ip), vehicle: saline) was 109 % of control and the T/C [3] was 115 % of control.
In the case of `CCN(CC)c1ccc(N=Cc2ccccc2S(=O)(=O)O)cc1`, the T/C (dose: 6.25 mg/kg/injection, schedule: Q01DX009 (ip), vehicle: saline) is reported as 100 % of control, the T/C (dose: 6.25 mg/kg/injection, schedule: Q04DX003 (ip), vehicle: saline) is reported as 104 % of control and the T/C (dose: 12.5 mg/kg/injection, schedule: Q01DX009 (ip), vehicle: saline) is reported as 100 % of control. The T/C (dose: 12.5 mg/kg/injection, schedule: Q04DX003 (ip), vehicle: saline) was 109 % of control, the T/C (dose: 25.0 mg/kg/injection, schedule: Q01DX009 (ip), vehicle: saline) was 100 % of control and the T/C (dose: 25.0 mg/kg/injection, schedule: Q04DX003 (ip), vehicle: saline) was 104 % of control.
For `CC1CNC(=O)O1` (stereo not drawn), the T/C [2] was 115 % of control, the T/C [3] was 110 % of control and the T/C (dose: 400.0 mg/kg/injection, schedule: Q04DX003 (ip), vehicle: saline) was 95 % of control.
With `COC(=O)c1cc(Cl)c(C(=O)OC)cc1Cl` the T/C (dose: 100.0 mg/kg/injection, schedule: Q04DX003 (ip), vehicle: Klucel (hydroxypropylcellulose) (HPC)) was 104 % of control, the T/C [1] was 96 % of control and the T/C (dose: 400.0 mg/kg/injection, schedule: Q04DX003 (ip), vehicle: Klucel (hydroxypropylcellulose) (HPC)) was 100 % of control.
`Clc1ccc(CN2CCCN(Cc3ccc(Cl)c(Cl)c3)S2)cc1Cl` was tested, and the T/C (dose: 50.0 mg/kg/injection, schedule: Q01DX009 (ip), vehicle: saline with Tween-80) was 101 % of control, the T/C (dose: 100.0 mg/kg/injection, schedule: Q01DX009 (ip), vehicle: saline with Tween-80) was 97 % of control and the T/C (dose: 200.0 mg/kg/injection, schedule: Q01DX009 (ip), vehicle: saline with Tween-80) was 90 % of control.
For `NC(C(=O)O)c1cc(=O)[nH]o1` (stereo not drawn), the T/C (dose: 0.25 mg/kg/injection, schedule: Q01DX009 (ip), vehicle: Klucel (hydroxypropylcellulose) (HPC)) was 86 % of control, the T/C (dose: 0.5 mg/kg/injection, schedule: Q01DX009 (ip), vehicle: Klucel (hydroxypropylcellulose) (HPC)) was 97 % of control and the T/C (dose: 1.0 mg/kg/injection, schedule: Q01DX009 (ip), vehicle: Klucel (hydroxypropylcellulose) (HPC)) was 112 % of control.
`CN(C)c1ccc(/C=C2\C=Cc3ccccc32)cc1F` was tested, and the T/C (dose: 44.0 mg/kg/injection, schedule: Q04DX003 (ip), vehicle: saline sonified) was 90 % of control, the T/C (dose: 66.0 mg/kg/injection, schedule: Q04DX003 (ip), vehicle: saline sonified) was 100 % of control and the T/C (dose: 100.0 mg/kg/injection, schedule: Q01DX009 (ip), vehicle: saline sonified) was 104 % of control. For the same compound, the T/C (dose: 100.0 mg/kg/injection, schedule: Q04DX003 (ip), vehicle: saline sonified) was 90 % of control, the T/C (dose: 150.0 mg/kg/injection, schedule: Q04DX003 (ip), vehicle: saline sonified) was 95 % of control and the T/C (dose: 200.0 mg/kg/injection, schedule: Q01DX009 (ip), vehicle: saline sonified) was 100 % of control. The T/C (dose: 200.0 mg/kg/injection, schedule: Q04DX003 (ip), vehicle: saline sonified) was 110 % of control, the T/C (dose: 400.0 mg/kg/injection, schedule: Q01DX009 (ip), vehicle: saline sonified) was 104 % of control and the T/C (dose: 400.0 mg/kg/injection, schedule: Q04DX003 (ip), vehicle: saline sonified) was 120 % of control.
